Columns and labels:
[1] = test system: adjuvant induced arthritis; assay: Adjuvant induced arthritis (AIA) in rats, clinical and histological score; format: in vivo
Description: AIA in Rats: Female Lewis rats, aged 8-12 weeks, obtained from Harlan Laboratories (Jerusalem, Israel), were injected subcutaneously (s.c.) at the tail base with 100 μl of suspension composed of incomplete Freund's adjuvant (IFA) with 10 mg/ml heat killed Mycobacterium tuberculosis, (Mt) H37Ra, (Difco, Detroit, USA). To assess the clinical disease activity score, the animals were inspected every second day for clinical arthritis. The scoring system ranged from 0-4 of each limb: 0-no arthritis; 1-redness or swelling of one toe/finger joint; 2-redness and swelling of more than one toe/finger joints; 3-the ankle and tarsal-metatarsal joints involvement; 4-entire paw redness or swelling. The arthritic score was calculated by adding the four individual legs' score to a maximum of 16. For histological scoring, Animals were sacrificed, the legs were removed up to the knee level, fixed in 10% formaldehyde, decalcified, dehydrated, paraffin-embedded, cut into 4 μm sections and stained by Hematoxylin-Eosin. The assessment of all pathologic findings were performed blind using semi-quantitative grading scales of 0 to 4 for the following parameters: a) extent of inflammatory cells' infiltration to the joint tissues; b) synovial lining cell hyperplasia; c) pannus formation; and d) joint cartilage layers destruction. […] TNF-α was measured in synovia, DLN and spleen tissues derived from control and CF101 treated rats. […] Protein concentrations were determined using the Bio-Rad protein assay dye reagent. […] Bands were recorded using BCIP/NBT color development kit (Promega, Madison, Wis., USA). Densitometry of protein expression was normalized against β-actin and expressed as % of control. […]

[2] = test system: A3AR, A2AR, PI3K, PKB/Akt, IKKα/β, NF-κB, TNF-α, GSK-3β, caspase-3; assay: Western blot of A3AR and downstream signaling proteins in DLN and synovial tissue of AIA rats; format: in vivo
Description: AIA in Rats: Female Lewis rats, aged 8-12 weeks, obtained from Harlan Laboratories (Jerusalem, Israel), were injected subcutaneously (s.c.) at the tail base with 100 μl of suspension composed of incomplete Freund's adjuvant (IFA) with 10 mg/ml heat killed Mycobacterium tuberculosis, (Mt) H37Ra, (Difco, Detroit, USA). To assess the clinical disease activity score, the animals were inspected every second day for clinical arthritis. The scoring system ranged from 0-4 of each limb: 0-no arthritis; 1-redness or swelling of one toe/finger joint; 2-redness and swelling of more than one toe/finger joints; 3-the ankle and tarsal-metatarsal joints involvement; 4-entire paw redness or swelling. The arthritic score was calculated by adding the four individual legs' score to a maximum of 16. For histological scoring, Animals were sacrificed, the legs were removed up to the knee level, fixed in 10% formaldehyde, decalcified, dehydrated, paraffin-embedded, cut into 4 μm sections and stained by Hematoxylin-Eosin. The assessment of all pathologic findings were performed blind using semi-quantitative grading scales of 0 to 4 for the following parameters: a) extent of inflammatory cells' infiltration to the joint tissues; b) synovial lining cell hyperplasia; c) pannus formation; and d) joint cartilage layers destruction. A fifth parameter, bone damage and erosion, was graded 0-5: 0-normal; 1-minimal loss of cortical bone at a few sites; 2-mild loss of cortical trabecular bone; 3-moderate loss of bone at many sites; 4-marked loss of bone at many sites; 5-marked loss of bone at many sites with fragmenting and full thickness penetration of inflammatory process or pannus into the cortical bone The mean of all the histological parameters scores were designated “Histology Score”. TNF-α was measured in synovia, DLN and spleen tissues derived from control and CF101 treated rats. To detect the level of expression of TNF-α, WB analysis was performed. Spleen and DLN mononuclear cells and synovial tissue were rinsed with ice-cold PBS and transferred to ice-cold lysis buffer (TNN buffer, 50 mM Tris buffer pH=7.5, 150 mM NaCl, NP 40 0.5% for 20 minutes). Cell debris was removed by centrifugation for 10 minutes, at 7500 g. The supernatant was utilized for WB analysis. Protein concentrations were determined using the Bio-Rad protein assay dye reagent. Equal amounts of the sample (50 μg) were separated by SDS-PAGE, using 12% polyacrylamide gels. The resolved proteins were then electro-blotted onto nitrocellulose membranes (Schleicher & Schuell, Keene, NH, USA). Membranes were blocked with 1% bovine serum albumin and incubated with polyclonal goat anti-rat TNF-α antibodies (dilution 1:1000) (Santa Cruz Biotechnology Inc., CA, USA) for 24 hours at 4° C. Blots were then washed and incubated with rabbit anti-goat polyclonal antibodies for 1 hour at room temperature. Bands were recorded using BCIP/NBT color development kit (Promega, Madison, Wis., USA). Densitometry of protein expression was normalized against β-actin and expressed as % of control.
Adjuvant induced arthritis (AIA) was induced in rats as described above. Rats were treated orally twice daily with either (i) vehicle (these rats serving as control), (ii) 10 μg/kg IB-MECA or with (ii) the specific A3AR […] MRS 1220 followed 30 minutes later by IB-MECA. The […] were sacrificed on day 28 for histological scoring and measurement of signaling proteins and TNF-α.

B16-F10 melanoma = B16-F10 melanoma tumor growth in mice; format: in vivo; conditions: 100 μg/kg orally once daily, 15 days, p<0.0001
Description: Melanoma: C57BL/6J, male mice (Harlan Laboratories, Jerusalem, Israel) aged 2 months, weighing an average of 25 g were used. B16-F10 (2.5×105) melanoma cells were subcutaneously (s.c.) injected to the flank of the mice. IB-MECA at a dose of 100 μg/kg body weight was administered orally once daily, starting 24 hours after tumor cells' inoculation. The control group was treated daily, orally, with the vehicle only. Mice were sacrificed after 15 days, tumor lesions were excise and protein was extracted for measurements as described above. The tumor size (width (W) and length (L)) was measured with a caliber and calculated according to the following formula: Tumor Size =(W)2xL/2. Each group contained 15 mice and the study was repeated 3 times.
Consequently, an increase in the total GSK-3β level was noted, thereby leading to a decrease in the level of β-catenin.

[3] = test system: A3AR, NF-κB, c-myc, cyclin D1; assay: Immunoblot analysis of proteins extracted from prostate carcinoma (PC-3) cells; format: cell-based
Description: To detect the level of expression of the A3AR proteins Western blot analysis was performed. Cells were incubated in the presence and absence of IB-MECA (10 nM), MRS1523 (10 nM), Forskolin (50 nM), 8 Br cAMP (100 μM), Cycloheximide 20 μg/ml or MG 132 (20 nM) for different time periods at 37° C. Cells were then rinsed with ice-cold PBS and transferred to ice-cold lysis buffer (TNN buffer, 50 mM Tris buffer pH=7.5, 150 mM NaCl, NP 40). In the experiment examining the effect of trypsin on A3AR expression, cells were incubated with 0.5 ml of 0.25% trypsin for 5 minutes. The trypsinized cells were washed again with ice-cold PBS, harvested by centrifugation and subjected to lysis in TNN buffer. Cell debris was removed by centrifugation for 10 minutes, at 7500 xg. The supernatant was utilized for Western Blot analysis. Protein concentrations were determined using the Bio-Rad protein assay dye reagent. Equal amounts of the sample (50 μg) were separated by SDS-PAGE, using 12% polyacrylamide gels. The resolved proteins were then electroblotted onto nitrocellulose membranes (Schleicher & Schuell, Keene, NH, USA). Membranes were blocked with 1% bovine serum albumin and incubated with the desired primary antibody (dilution 1:1000) for 24 hours at 4° C. Blots were then washed and incubated with a secondary antibody for 1 hour at room temperature. Bands were recorded using BCIP/NBT color development kit (Promega, Madison, W1, USA). Data presented in the different figures are representative of at least three different experiments.
The effect of IB-MECA on key proteins downstream to A3AR activation in prostate carcinoma cells was also examined in a manner similar to that performed with melanoma cells (see above).

CNC(=O)[C@H]1O[C@@H](n2cnc3c(NCc4cccc(I)c4)ncnc32)[C@H](O)[C@@H]1O [IB-MECA, 1-deoxy-1-[6[[(3-iodophenyl)methyl]amino]-9H-purine-9-yl]-N-methyl-β-D-ribofura-nuronaminde]
clinical score (inflammatory response) ([1]; 10 μg/kg orally twice daily, versus vehicle): anti-inflammatory response | histological score ([1]; day 28, versus control): anti-inflammatory activity | GSK-3β level ([2]; DLN): up-regulation | PI3K level ([2]; DLN): down-regulation | caspase-3 level ([2]; DLN): up-regulation | IKKα/β level ([2]; DLN and synovial tissue): down-regulation | NF-κB level ([2]; DLN and synovial tissue): down-regulation | TNF-α level ([2]; DLN and synovial tissue): down-regulation | level of the A2 adenosine receptor (A2AR) ([2]; DLN, Western blot): no effect | level of the A3AR ([2]; DLN, Western blot): down-regulation | PKB/Akt level ([2]; DLN, protein expression and activity): down-regulation | inhibition of B16-F10 melanoma tumor growth (B16-F10 melanoma): 76% | A3AR level [3]: down-regulation | NF-κB level [3]: down-regulation | c-myc level [3]: down-regulation | cyclin D1 level [3]: down-regulation
